Laboratory results reported in US7196192B2, “28-epirapalogs” (Ariad Gene Therapeutics, Inc., priority 1999, dated 2007).
Like-named read-outs stand apart in the source and are kept apart here.

Tests used:
[1] = system: murine splenocyte; assay: murine splenocyte assay for immunosuppressive activity; type: cell-based; conditions: mouse splenocyte assay, methods of Example 2.5, read-out: Splenocyte IC50
Experimental: 3. Conventional murine splenocyte assay for immunosuppressive activity.
(§1) A diverse group of C7-modified 28-epirapalogs were prepared as described in Example 4.

[2] = target: T1, transcriptional switch components containing FKBP and 2098L mutant FRB domains (Homo sapiens, UniProt P42345+P62942); assay: transcription assay in engineered HD1080 cells expressing SEAP (txn 2098L); type: cell-based; conditions: for EC50: cellular transcription assay, methods of Example 2.5, read-out: TXN 2098L EC50; for TXN 2098L peak relative to rapamycin peak: superscript mark on EC50 cell
T1 construct: transcriptional switchcomponents containing FKBP and 2098L mutant FRB domains, respectively; fused on or other part: The two switch components are separate chimeric proteins; Neither is given for this cell line
T1 sequence (P62942 2-108 limits assumed, stated change not applied, other chains not shown): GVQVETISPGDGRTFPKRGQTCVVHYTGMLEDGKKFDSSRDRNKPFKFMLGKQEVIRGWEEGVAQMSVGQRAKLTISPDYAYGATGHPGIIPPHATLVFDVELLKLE
Source text: The ability of the rapalogs to multimerize chimeric proteins may be measured in cell-based assays by measuring the occurrence of an event triggered by such multimerization. For instance, one may use cells containing and capable of expressing DNA encoding a first chimeric protein comprising one or more FKBP-domains and one or more effector domains as well as DNA encoding a second chimeric protein containing an FRB domain and one or more effector domains capable, upon multimerization, of actuating a biological response. We prefer to use cells which further contain a reporter gene under the transcriptional control of a regulatory element (i.e., promoter) which is responsive to the multimerization of the chimeric proteins. The design and preparation of illustrative components and their use in so engineered cells is described in WO99/36553 and WO96/41865 and the other international patent applications referred to in this and the foregoing section. (See also W099/10510 for additional guidance on the design, assembly and delivery of nucleic acids to render cells and animals responsive to rapalogs of interest and for additional guidance on applications of such systems.) The cells are grown or maintained in culture. A rapalog is added to the culture medium and after a suitable incubation period (to permit gene expression and secretion, e.g. several hours or overnight) the presence of the reporter gene product is measured. Positive results, i.e., multimerization, correlates with transcription of the reporter gene as observed by the appearance of the reporter gene product. The reporter gene product may be a conveniently detectable protein (e.g. by ELISA) or may catalyze the production of a conveniently detectable product (e.g. colored). Materials and methods for producing appropriate cell lines for conducting such assays are disclosed in the international patent applications cited above in this section.
2. EC50 values of the various compounds was measured in a transcription assay using genetically engineered HD1080 cells which constitutively express transcriptional switch components containing FKBP and 2098L mutant FRB domains, respectively and which regulatably express secreted alkaline phosphatase (SEAP) in the presence of a compound which multimerizes the switch components. The assay is a literature assay. See WO 99/36553, e.g. Example 12, pages 120–121 (& FIG. 2D) […]

[3] = target: FKBP (Homo sapiens, UniProt P62942); assay: FKBP competitive binding assay based on fluorescence polarization (FP); conditions: competitive FP binding, methods of Example 2.5; read-out: FKBP IC50
FKBP, sequence (P62942 whole entry): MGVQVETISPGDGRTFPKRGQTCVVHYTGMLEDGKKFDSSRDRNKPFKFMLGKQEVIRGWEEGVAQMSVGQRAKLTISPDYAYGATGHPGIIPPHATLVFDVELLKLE
Experimental: A Competitive Binding FP Assay is described in detail in WO99/36553 and WO96/41865. That assay permits the in vitro measurement of an IC50 value for a given compound which reflects its ability to bind to an FKBP-protein in competition with a labeled FKBP ligand, such as, for example, FK506.
as §1

| IC50 ([1]; Mus musculus, Splenocyte) | EC50 [2] | IC50 [3] | Molecule | TXN 2098L peak relative to rapamycin peak [2] | IC50 [1] |
| --- | --- | --- | --- | --- | --- |
| 1150 nM | 8 nM | 163 nM | CO[C@@H]1C[C@H](C[C@@H](C)[C@@H]2CC(=O)[C@H](C)/C=C(\C)[C@H](O)[C@@H](OC)C(=O)[C@H](C)C[C@H](C)/C=C/C=C/C=C(\C)[C@H](N(C)C(=O)OCc3ccccc3)C[C@@H]3CC[C@@H](C)[C@@](O)(O3)C(=O)C(=O)N3CCCC[C@H]3C(=O)O2)CC[C@H]1O [28-epi-7R-N-Me-benzylcarbamate] | (−) (peak was <80% rapamycin peak) |  |
| 0.16 nM | 20 nM | 11 nM | CCCCS(=O)(=O)N[C@@H]1C[C@@H]2CC[C@@H](C)[C@@](O)(O2)C(=O)C(=O)N2CCCC[C@H]2C(=O)O[C@H]([C@H](C)C[C@@H]2CC[C@@H](O)[C@H](OC)C2)CC(=O)[C@H](C)/C=C(\C)[C@H](O)[C@@H](OC)C(=O)[C@H](C)C[C@H](C)/C=C/C=C/C=C/1C [28-epi-7R-butanesulfonamide] |  |  |
| 3450 nM | 15 nM | 40 nM | CO[C@@H]1C[C@H](C[C@@H](C)[C@@H]2CC(=O)[C@H](C)/C=C(\C)[C@H](O)[C@@H](OC)C(=O)[C@H](C)C[C@H](C)/C=C/C=C/C=C(\C)[C@@H](NC(=O)OCc3ccccc3)C[C@@H]3CC[C@@H](C)[C@@](O)(O3)C(=O)C(=O)N3CCCC[C@H]3C(=O)O2)CC[C@H]1O [28-epi-7S-benzylcarbamate] |  |  |
| 598 to 1060 nM | 50 nM | 31 nM | COc1ccc([C@H]2C[C@@H]3CC[C@@H](C)[C@@](O)(O3)C(=O)C(=O)N3CCCC[C@H]3C(=O)O[C@H]([C@H](C)C[C@@H]3CC[C@@H](O)[C@H](OC)C3)CC(=O)[C@H](C)/C=C(\C)[C@H](O)[C@@H](OC)C(=O)[C@H](C)C[C@H](C)/C=C/C=C/C=C/2C)c(OC)c1 [28-epi-7S-dimethoxyphenyl] |  |  |
|  | 40 nM | 19 nM | COC1CC(CC(C)C2CC(=O)C(C)C=C(C)C(O)C(OC)C(=O)C(C)CC(C)C=CC=CC=C(C)C(N(C)C(=O)OCC(C)C)CC3CCC(C)C(O)(O3)C(=O)C(=O)N3CCCCC3C(=O)O2)CCC1O (single isomer, unassigned) [28-epi-7S-N-Me-isobutylcarbamate] |  | 1380 nM |
|  | 18 nM | 70 nM | COC1CC(CC(C)C2CC(=O)C(C)C=C(C)C(O)C(OC)C(=O)C(C)CC(C)C=CC=CC=C(C)C(OCc3ccccc3)CC3CCC(C)C(O)(O3)C(=O)C(=O)N3CCCCC3C(=O)O2)CCC1O (single isomer, unassigned) [28-epi-7S-benzyloxy] |  | 93 nM |

More lines, now with the values behind:

| Molecule | IC50 ([1]; Mus musculus, Splenocyte) | EC50 [2] | IC50 [3] | TXN 2098L peak relative to rapamycin peak [2] | IC50 [1] |
| --- | --- | --- | --- | --- | --- |
| 28-epi-7S-(3′-methyl)-but-4′-enyloxy |  | 16 nM | 27 nM |  | 718 nM |
| CO[C@@H]1C[C@H](C[C@@H](C)[C@@H]2CC(=O)[C@H](C)/C=C(\C)[C@H](O)[C@@H](OC)C(=O)[C@H](C)C[C@H](C)/C=C/C=C/C=C(\C)[C@@H](N(C)C(=O)Oc3ccc(C)cc3)C[C@@H]3CC[C@@H](C)[C@@](O)(O3)C(=O)C(=O)N3CCCC[C@H]3C(=O)O2)CC[C@H]1O [28-epi-7S-N-Me-p-tolylcarbamate] |  | 25 nM | 54 nM |  | 50 nM |
| COC1CC(CC(C)C2CC(=O)C(C)C=C(C)C(O)C(OC)C(=O)C(C)CC(C)C=CC=CC=C(C)C(NS(=O)(=O)N(C)C)CC3CCC(C)C(O)(O3)C(=O)C(=O)N3CCCCC3C(=O)O2)CCC1O (stereo not drawn) [28-epi-7R-dimethylsulfamide] |  | 20 nM | 29 nM | (+) (peak was >125% rapamycin peak) | 1840 nM |
| CO[C@@H]1C[C@H](C[C@@H](C)[C@@H]2CC(=O)[C@H](C)/C=C(\C)[C@H](O)[C@@H](OC)C(=O)[C@H](C)C[C@H](C)/C=C/C=C/C=C(\C)[C@H](NS(=O)(=O)N(C)c3ccccc3)C[C@@H]3CC[C@@H](C)[C@@](O)(O3)C(=O)C(=O)N3CCCC[C@H]3C(=O)O2)CC[C@H]1O [28-epi-7R-methylphenylsulfamide] |  | 27 nM | 38 nM |  | 22 nM |
